From the supplement of paper PMC6125532
In brackets after ≈: the same amount, converted by molar mass.

What was measured:
[1] = system: Mycobacterium tuberculosis CRY-16
Procedure: (§1)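 Resazurin microtiter assay (REMA) MICs of anti-TB drugs against 19 EQA Mycobacterium tuberculosis strains (clinical or proficiency isolates plus H37Rv). Drugs were tested in doubling dilutions. Each value is the consensus of two measurements; where they disagreed the lower value was taken.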

[2] = system: Mycobacterium tuberculosis CRY-8; CRY-13
Procedure: as §1

[3] = system: Mycobacterium tuberculosis CRY-5; CRY-10
Procedure: as §1

[4] = system: Mycobacterium tuberculosis CRY-9; CRY-22
Procedure: as §1

[5] = system: Mycobacterium tuberculosis CRY-26
Procedure: as §1

[6] = system: Mycobacterium tuberculosis CRY-14
Procedure: as §1

[7] = system: Mycobacterium tuberculosis CRY-23
Procedure: as §1

[8] = system: Mycobacterium tuberculosis CRY-19
Procedure: as §1

[9] = system: Mycobacterium tuberculosis CRY-6; CRY-29
Procedure: as §1

[10] = system: Mycobacterium tuberculosis CRY-7; CRY-18
Procedure: as §1

[11] = system: Mycobacterium tuberculosis CRY-1; CRY-17
Procedure: as §1

[12] = system: Mycobacterium tuberculosis CRY-28
Procedure: as §1

[13] = system: Mycobacterium tuberculosis CRY-3; CRY-11
Procedure: as §1

[14] = system: Mycobacterium tuberculosis CRY-12; CRY-24
Procedure: as §1

[15] = system: Mycobacterium tuberculosis CRY-4; CRY-30
Procedure: as §1

[16] = system: Mycobacterium tuberculosis CRY-2; CRY-25
Procedure: as §1

[17] = system: Mycobacterium tuberculosis CRY-27
Procedure: as §1

[18] = system: Mycobacterium tuberculosis CRY-20
Procedure: as §1

[19] = system: Mycobacterium tuberculosis CRY-15; CRY-21
Procedure: as §1

| SMILES | MIC (REMA) [1] | MIC (REMA) [2] | MIC (REMA) [3] | MIC (REMA) [4] | MIC (REMA) [5] | MIC (REMA) [6] | MIC (REMA) [7] | MIC (REMA) [8] | MIC (REMA) [9] | MIC (REMA) [10] | MIC (REMA) [11] | MIC (REMA) [12] | MIC (REMA) [13] | MIC (REMA) [14] | MIC (REMA) [15] | MIC (REMA) [16] | MIC (REMA) [17] | MIC (REMA) [18] | MIC (REMA) [19] |
| --- | --- | --- | --- | --- | --- | --- | --- | --- | --- | --- | --- | --- | --- | --- | --- | --- | --- | --- | --- |
| NNC(=O)c1ccncc1 [Isoniazid] | ≤ 0.015 µg/mL | > 8 µg/mL | > 8 µg/mL | 0.03 µg/mL (≈ 0.219 µM) | 0.03 µg/mL (≈ 0.219 µM) | > 8 µg/mL | > 8 µg/mL | 0.125 µg/mL (≈ 0.911 µM) | > 8 µg/mL | > 8 µg/mL | > 8 µg/mL | > 8 µg/mL | 0.06 µg/mL (≈ 0.438 µM) |  |  |  |  |  |  |
| CC(C)/N=c1\cc2n(-c3ccc(Cl)cc3)c3ccccc3nc-2cc1Nc1ccc(Cl)cc1 [Clofazimine] | 0.12 µg/mL (≈ 0.253 µM) | 0.06 µg/mL (≈ 0.127 µM) | 0.06 µg/mL (≈ 0.127 µM) | 1 µg/mL (≈ 2.11 µM) | 0.06 µg/mL (≈ 0.127 µM) | 0.03 µg/mL (≈ 0.0634 µM) | 0.008 µg/mL (≈ 0.0169 µM) |  | 0.06 µg/mL (≈ 0.127 µM) |  |  |  | 0.12 µg/mL (≈ 0.253 µM) |  | 0.03 µg/mL (≈ 0.0634 µM) | 0.12 µg/mL (≈ 0.253 µM) |  |  | 1 µg/mL (≈ 2.11 µM) |
| NCC[C@H](O)C(=O)N[C@@H]1C[C@H](N)[C@@H](O[C@H]2O[C@H](CN)[C@@H](O)[C@H](O)[C@H]2O)[C@H](O)[C@H]1O[C@H]1O[C@H](CO)[C@@H](O)[C@H](N)[C@H]1O [Amikacin] |  |  | 0.25 µg/mL (≈ 0.427 µM) | 0.25 µg/mL (≈ 0.427 µM) |  | > 16 µg/mL | 0.125 µg/mL (≈ 0.213 µM) | 0.25 µg/mL (≈ 0.427 µM) |  | > 16 µg/mL |  | 0.25 µg/mL (≈ 0.427 µM) |  | > 16 µg/mL |  | 0.25 µg/mL (≈ 0.427 µM) |  |  |  |
| C[C@]1(COc2ccc(N3CCC(Oc4ccc(OC(F)(F)F)cc4)CC3)cc2)Cn2cc([N+](=O)[O-])nc2O1 [Delamanid] | 0.03 µg/mL (≈ 0.0561 µM) | 0.03 µg/mL (≈ 0.0561 µM) | 0.125 µg/mL (≈ 0.234 µM) | 2 µg/mL (≈ 3.74 µM) | 0.015 µg/mL (≈ 0.0281 µM) | 0.015 µg/mL (≈ 0.0281 µM) | 0.03 µg/mL (≈ 0.0561 µM) | 0.015 µg/mL (≈ 0.0281 µM) | 0.015 µg/mL (≈ 0.0281 µM) | 0.06 µg/mL (≈ 0.112 µM) | > 2 µg/mL | 0.008 µg/mL (≈ 0.015 µM) | 0.06 µg/mL (≈ 0.112 µM) | 0.03 µg/mL (≈ 0.0561 µM) | 0.03 µg/mL (≈ 0.0561 µM) | 0.03 µg/mL (≈ 0.0561 µM) | 0.25 µg/mL (≈ 0.468 µM) | 0.015 µg/mL (≈ 0.0281 µM) | 0.125 µg/mL (≈ 0.234 µM) |

The remaining lines, values ahead:

| MIC (REMA) [1] | MIC (REMA) [2] | MIC (REMA) [3] | MIC (REMA) [4] | MIC (REMA) [5] | MIC (REMA) [6] | MIC (REMA) [7] | MIC (REMA) [8] | MIC (REMA) [9] | MIC (REMA) [10] | MIC (REMA) [11] | MIC (REMA) [12] | MIC (REMA) [13] | MIC (REMA) [14] | MIC (REMA) [15] | MIC (REMA) [16] | MIC (REMA) [17] | MIC (REMA) [18] | MIC (REMA) [19] | SMILES |
| --- | --- | --- | --- | --- | --- | --- | --- | --- | --- | --- | --- | --- | --- | --- | --- | --- | --- | --- | --- |
| ≤ 0.004 µg/mL | 2 µg/mL (≈ 2.36 µM) | 1 µg/mL (≈ 1.18 µM) | ≤ 0.004 µg/mL | ≤ 0.004 µg/mL | 0.125 µg/mL (≈ 0.148 µM) | ≤ 0.004 µg/mL | ≤ 0.004 µg/mL | ≤ 0.004 µg/mL | 2 µg/mL (≈ 2.36 µM) | > 2 µg/mL | 1 µg/mL (≈ 1.18 µM) | ≤ 0.004 µg/mL | ≤ 0.004 µg/mL | ≤ 0.004 µg/mL | ≤ 0.004 µg/mL | > 2 µg/mL | ≤ 0.004 µg/mL | 0.008 µg/mL (≈ 0.00944 µM) | CO[C@H]1/C=C/O[C@@]2(C)Oc3c(C)c(O)c4c(c3C2=O)C2=NC3(CCN(CC(C)C)CC3)NC2=C(NC(=O)/C(C)=C\C=C\[C@H](C)[C@H](O)[C@@H](C)[C@@H](O)[C@@H](C)[C@H](OC(C)=O)[C@@H]1C)C4=O [Rifabutin] |
| 0.25 µg/mL (≈ 0.692 µM) |  |  | 0.125 µg/mL (≈ 0.346 µM) | 0.25 µg/mL (≈ 0.692 µM) | 0.06 µg/mL (≈ 0.166 µM) | 0.06 µg/mL (≈ 0.166 µM) | 0.125 µg/mL (≈ 0.346 µM) | 0.125 µg/mL (≈ 0.346 µM) |  | 0.125 µg/mL (≈ 0.346 µM) | 0.06 µg/mL (≈ 0.166 µM) | 0.25 µg/mL (≈ 0.692 µM) | 0.25 µg/mL (≈ 0.692 µM) | 0.25 µg/mL (≈ 0.692 µM) |  | 0.25 µg/mL (≈ 0.692 µM) | 0.125 µg/mL (≈ 0.346 µM) | 0.125 µg/mL (≈ 0.346 µM) | C[C@H]1COc2c(N3CCN(C)CC3)c(F)cc3c(=O)c(C(=O)O)cn1c23 [Levofloxacin] |
|  | > 4 µg/mL | > 4 µg/mL |  | 0.015 µg/mL (≈ 0.0182 µM) | 2 µg/mL (≈ 2.43 µM) |  | 0.03 µg/mL (≈ 0.0365 µM) |  | > 4 µg/mL | > 4 µg/mL | > 4 µg/mL |  | 0.015 µg/mL (≈ 0.0182 µM) |  |  | > 4 µg/mL | 0.06 µg/mL (≈ 0.0729 µM) | 0.03 µg/mL (≈ 0.0365 µM) | CO[C@H]1/C=C/O[C@@]2(C)Oc3c(C)c(O)c4c(O)c(c(/C=N/N5CCN(C)CC5)c(O)c4c3C2=O)NC(=O)/C(C)=C\C=C\[C@H](C)[C@H](O)[C@@H](C)[C@@H](O)[C@@H](C)[C@H](OC(C)=O)[C@@H]1C [Rifampicin] |
